Measured values published in ChEMBL document CHEMBL5137019, “Sattahipmycin, a Hexacyclic Xanthone Produced by a Marine-Derived Streptomyces” (J Nat Prod, 2022).
Values after ≈ are worked out from the molar mass of the structure shown. Active and inactive are the calls of the source. No cut-off for these calls is given here.

Assays:
[1] = Selectivity index, ratio of IC50 for cytotoxicity against human MRC5 cells to IC50 for antimalarial activity against […] Plasmodium falciparum FCR3; format: toxicity, cell-based; details: MRC5 cells versus Plasmodium falciparum FCR3, read-out: Ratio IC50
[2] = Selectivity index, ratio of IC50 for cytotoxicity against human MRC5 cells to IC50 for antimalarial activity against chloroquine-resistant Plasmodium falciparum K1; format: toxicity, cell-based; details: MRC5 cells versus Plasmodium falciparum K1, read-out: Ratio IC50
Plasmodium falciparum [3] = test: Antimalarial activity against chloroquine-sensitive Plasmodium falciparum FCR3 assessed as parasite growth inhibition and measured after 72 hrs by ELISA; format: functional, organism-based; details: FCR3, 72 h
Plasmodium falciparum [4] = test: Antimalarial activity against chloroquine-resistant Plasmodium falciparum K1 assessed as parasite growth inhibition and measured after 72 hrs by ELISA; format: functional, organism-based; details: K1, 72 h
[5] = Cytotoxicity against human MRC5 cells assessed as cell growth inhibition and measured after 2 days by WST-8 assay; format: toxicity, cell-based
Bacillus subtilis [6] = test: Antibacterial activity against Bacillus subtilis KB211 assessed as bacterial growth inhibition by paper disc method; format: functional
HeLa S3 = test: Cytotoxicity against human HeLa S3 cells assessed as cell growth inhibition and measured after 2 days by WST-8 assay; format: functional, cell-based; details: HeLa S3, 48 h
A549 = test: Cytotoxicity against human A549 cells assessed as cell growth inhibition and measured after 2 days by WST-8 assay; format: functional, cell-based; details: A549, 48 h
HT-29 = test: Cytotoxicity against human HT-29 cells assessed as cell growth inhibition and measured after 2 days by WST-8 assay; format: functional, cell-based; details: HT-29, 48 h
Escherichia coli [7] = test: Antibacterial activity against Escherichia coli NBRC 3972 assessed as bacterial growth inhibition by paper disc method; format: functional
NCI-H1299 = test: Cytotoxicity against human NCI-H1299 cells assessed as cell growth inhibition and measured after 2 days by WST-8 assay; format: functional, cell-based; details: NCI-H1299, 48 h
[8] = tested on: Xanthomonas campestris pv. oryzae; test: Antibacterial activity against Xanthomonas campestris pv. oryzae KB88 assessed as bacterial growth inhibition by paper disc method; format: functional
Escherichia coli [9] = test: Bactericidal activity against Escherichia coli NBRC 3972; format: functional
[10] = tested on: Xanthomonas campestris pv. oryzae; test: Antibacterial activity against Xanthomonas campestris pv. oryzae KB88 at 1 to 30 ug per disc by paper disc method; format: functional, organism-based; details: dose 1-30 µg
Kocuria rhizophila = test: Antibacterial activity against Kocuria rhizophila KB212 assessed as bacterial growth inhibition by paper disc method; format: functional
Bacillus subtilis [11] = test: Antibacterial activity against Bacillus subtilis KB211 at 1 to 30 ug paper disc by paper disc method; format: functional, organism-based; details: dose 1-30 µg
Escherichia coli [12] = test: Antibiofilm activity against Escherichia coli NBRC 3972 assessed as inhibition of biofilm formation at 15 to 60 ug/ml incubated overnight by crystal violet staining based ELISA; format: functional; details: dose 15-60 µg/ml; at 15 to 60 µg/mL
PANC-1 = test: Cytotoxicity against human PANC-1 cells assessed as cell growth inhibition and measured after 2 days by WST-8 assay; format: functional, cell-based; details: PANC-1, 48 h
Micrococcus luteus = test: Antibacterial activity against Micrococcus luteus KB212 at 1 to 30 ug per disc by paper disc method; format: functional, organism-based; details: dose 1-30 µg
Staphylococcus aureus [13] = test: Antibacterial activity against Staphylococcus aureus KB210 assessed as bacterial growth inhibition by paper disc method; format: functional
Staphylococcus aureus [14] = test: Antibacterial activity against Staphylococcus aureus KB210 at 1 to 30 ug per disc by paper disc method; format: functional, organism-based; details: dose 1-30 µg

C[C@@H]1CC[C@H]2[C@@H](C)C(=O)O[C@@H]3O[C@@]4(C)CC[C@@H]1[C@]32OO4 [ARTEMISININ] gave a selectivity ratio [1] of 2030, a selectivity ratio [2] of 1580 and an IC50 (Plasmodium falciparum [3]) of 0.02 µM. The IC50 (Plasmodium falciparum [4]) was 0.03 µM and the IC50 at 2 days [5] was 50.3 µM.

With COc1c2c(c(O)c3c(=O)c4cccc(O)c4oc13)-c1c(cc3cc(C)[nH]c(=O)c3c1O)C[C@H]2O the MIC (Bacillus subtilis [6]) was 0.25 mg/L (≈ 0.528 µM), the IC50 (HeLa S3) was 2.18 µM and the IC50 (A549) was 1.86 µM. It also gave a selectivity ratio [1] of 0.85, an IC50 (HT-29) of 1.9 µM and an MIC (Escherichia coli [7]) greater than 250 mg/L. For the same molecule, the IC50 (NCI-H1299) was 10.6 µM, the selectivity ratio [2] was 0.62 and the MIC [8] was 0.25 mg/L (≈ 0.528 µM). The Activity (Escherichia coli [9]) was greater than 250 µg/mL, the Activity [10] was “Active” and the MIC (Kocuria rhizophila) was 0.25 mg/L (≈ 0.528 µM). The Activity (Bacillus subtilis [11]) was “Active”, the “inhibition (INH)” value (Escherichia coli [12]) was 50% and the IC50 (PANC-1) was 12.9 µM. For the same molecule, the Activity (Micrococcus luteus) was “Active”, the IC50 (Plasmodium falciparum [3]) was 0.2 µM and the MIC (Staphylococcus aureus [13]) was 0.25 mg/L (≈ 0.528 µM). The IC50 (Plasmodium falciparum [4]) was 0.27 µM, the IC50 at 2 days [5] was 0.17 µM and the Activity (Staphylococcus aureus [14]) was “Active”.

Work on CCN(CC)CCCC(C)Nc1ccnc2cc(Cl)ccc12 (configuration not stated) [CHLOROQUINE] yielded an IC50 at 2 days [5] of 58.2 µM.
